In PubChem BioAssay (NCI):
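All cell lines were grown in 96-well plates and treated with compound for 48 hours. Here, GI50 denotes the concentration required for 50% inhibition of growth. TGI: concentration producing complete growth inhibition.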

Key:
Test in all cases: NCI-60 cell line screen, 48 h
PC-3 prostate = test system: PC-3 prostate
IGROV1 ovarian = test system: IGROV1 ovarian
786-0 renal = test system: 786-0 renal
MCF7 breast = test system: MCF7 breast
T-47D breast = test system: T-47D breast
SR leukemia = test system: SR leukemia
DU-145 prostate = test system: DU-145 prostate
TK-10 renal = test system: TK-10 renal
U251 CNS = test system: U251 CNS
SF-268 CNS = test system: SF-268 CNS
UO-31 renal = test system: UO-31 renal
UACC-62 melanoma = test system: UACC-62 melanoma
EKVX NSCLC = test system: EKVX NSCLC
SN12C renal = test system: SN12C renal
HCC-2998 colon = test system: HCC-2998 colon
SW-620 colon = test system: SW-620 colon
UACC-257 melanoma = test system: UACC-257 melanoma
HCT-116 colon = test system: HCT-116 colon
HS 578T breast = test system: HS 578T breast
NCI-H522 lung = test system: NCI-H522 lung
RPMI-8226 leukemia = test system: RPMI-8226 leukemia
SK-MEL-2 melanoma = test system: SK-MEL-2 melanoma
SK-OV-3 ovarian = test system: SK-OV-3 ovarian
SNB-75 CNS = test system: SNB-75 CNS
OVCAR-8 ovarian = test system: OVCAR-8 ovarian
HL-60(TB) leukemia = test system: HL-60(TB) leukemia
HOP-62 NSCLC = test system: HOP-62 NSCLC
CAKI-1 renal = test system: CAKI-1 renal
MOLT-4 leukemia = test system: MOLT-4 leukemia
SK-MEL-5 melanoma = test system: SK-MEL-5 melanoma
NCI-H23 lung = test system: NCI-H23 lung
SF-539 CNS = test system: SF-539 CNS
NCI-H460 lung = test system: NCI-H460 lung
RXF 393 renal = test system: RXF 393 renal
MALME-3M melanoma = test system: MALME-3M melanoma
COLO 205 colon = test system: COLO 205 colon
BT-549 breast = test system: BT-549 breast
A498 renal = test system: A498 renal
HOP-92 NSCLC = test system: HOP-92 NSCLC
OVCAR-4 ovarian = test system: OVCAR-4 ovarian
NCI-H226 lung = test system: NCI-H226 lung
MDA-MB-435 = test system: MDA-MB-435
NCI/ADR-RES ovarian = test system: NCI/ADR-RES ovarian
SNB-19 CNS = test system: SNB-19 CNS
OVCAR-5 ovarian = test system: OVCAR-5 ovarian
M14 melanoma = test system: M14 melanoma
SF-295 CNS = test system: SF-295 CNS
ACHN renal = test system: ACHN renal
CCRF-CEM leukemia = test system: CCRF-CEM leukemia
MDA-MB-231 breast = test system: MDA-MB-231 breast
OVCAR-3 ovarian = test system: OVCAR-3 ovarian
HT29 colon = test system: HT29 colon
LOX IMVI melanoma = test system: LOX IMVI melanoma
K-562 leukemia = test system: K-562 leukemia
HCT-15 colon = test system: HCT-15 colon
SK-MEL-28 melanoma = test system: SK-MEL-28 melanoma
KM12 colon = test system: KM12 colon
A549 NSCLC = test system: A549 NSCLC

SMILES: O=C1c2cccc3cc([N+](=O)[O-])cc(c23)C(=O)N1Nc1ccc([N+](=O)[O-])cc1[N+](=O)[O-]
- TGI (PC-3 prostate): 72.7 µM
- TGI (IGROV1 ovarian): 25.5 µM
- TGI (786-0 renal): 35.7 µM
- TGI (MCF7 breast): > 31.6 µM
- TGI (T-47D breast): > 31.6 µM
- TGI (SR leukemia): 11.6 µM
- TGI (DU-145 prostate): > 46.4 µM
- TGI (TK-10 renal): > 46.4 µM
- TGI (U251 CNS): 29.3 µM
- TGI (SF-268 CNS): > 31.6 µM
- TGI (UO-31 renal): 33.1 µM
- TGI (UACC-62 melanoma): 24.5 µM
- TGI (EKVX NSCLC): > 46.4 µM
- TGI (SN12C renal): > 73.5 µM
- TGI (HCC-2998 colon): 29.2 µM
- TGI (SW-620 colon): 25.3 µM
- TGI (UACC-257 melanoma): 24.1 µM
- TGI (HCT-116 colon): 34.3 µM
- TGI (HS 578T breast): > 31.6 µM
- TGI (NCI-H522 lung): 28.6 µM
- TGI (RPMI-8226 leukemia): > 31.6 µM
- TGI (SK-MEL-2 melanoma): > 100 µM
- TGI (SK-OV-3 ovarian): > 31.6 µM
- TGI (SNB-75 CNS): > 31.6 µM
- TGI (OVCAR-8 ovarian): 21 µM
- TGI (HL-60(TB) leukemia): 27.5 µM
- TGI (HOP-62 NSCLC): 50.5 µM
- TGI (CAKI-1 renal): > 31.6 µM
- TGI (MOLT-4 leukemia): 11.8 µM
- TGI (SK-MEL-5 melanoma): 21.1 µM
- TGI (NCI-H23 lung): 35.7 µM
- TGI (SF-539 CNS): > 31.6 µM
- TGI (NCI-H460 lung): 36.2 µM
- TGI (RXF 393 renal): > 31.6 µM
- TGI (MALME-3M melanoma): > 31.6 µM
- TGI (COLO 205 colon): 18.3 µM
- TGI (BT-549 breast): > 31.6 µM
- TGI (A498 renal): 41.1 µM
- TGI (HOP-92 NSCLC): > 31.6 µM
- TGI (OVCAR-4 ovarian): > 46.4 µM
- TGI (NCI-H226 lung): > 31.6 µM
- TGI (MDA-MB-435): > 46.4 µM
- TGI (NCI/ADR-RES ovarian): > 31.6 µM
- TGI (SNB-19 CNS): 38.9 µM
- TGI (OVCAR-5 ovarian): > 100 µM
- TGI (M14 melanoma): > 74.9 µM
- TGI (SF-295 CNS): > 31.6 µM
- TGI (ACHN renal): 7.06 µM
- TGI (CCRF-CEM leukemia): 14.5 µM
- TGI (MDA-MB-231 breast): 42.9 µM
- TGI (OVCAR-3 ovarian): 82.8 µM
- TGI (HT29 colon): 24.2 µM
- TGI (LOX IMVI melanoma): 19.4 µM
- TGI (K-562 leukemia): > 31.6 µM
- TGI (HCT-15 colon): 27.4 µM
- TGI (SK-MEL-28 melanoma): 18 µM
- TGI (KM12 colon): 26.3 µM
- TGI (A549 NSCLC): > 31.6 µM

SMILES: COc1ccccc1NC(=O)c1cc2cc(Br)ccc2cc1O
- GI50 (PC-3 prostate): 1.83 µM
- TGI (PC-3 prostate): 6.79 µM
- GI50 (IGROV1 ovarian): 1.6 µM
- TGI (IGROV1 ovarian): 6.56 µM
- GI50 (786-0 renal): 3.52 µM
- TGI (786-0 renal): 11.2 µM
- GI50 (MCF7 breast): 1.76 µM
- TGI (MCF7 breast): 9.3 µM
- GI50 (T-47D breast): 2 µM
- TGI (T-47D breast): 10.7 µM
- GI50 (SR leukemia): 0.809 µM
- TGI (SR leukemia): 9.14 µM
- GI50 (DU-145 prostate): 3.28 µM
- TGI (DU-145 prostate): 14 µM
- GI50 (TK-10 renal): 4.31 µM
- TGI (TK-10 renal): 15.3 µM
- GI50 (U251 CNS): 2.65 µM
- TGI (U251 CNS): 9.58 µM
- GI50 (SF-268 CNS): 3.21 µM
- TGI (SF-268 CNS): 16.2 µM
- GI50 (UO-31 renal): 1.57 µM
- TGI (UO-31 renal): 7.85 µM
- GI50 (UACC-62 melanoma): 1.7 µM
- TGI (UACC-62 melanoma): 8.23 µM
- GI50 (EKVX NSCLC): 1.77 µM
- TGI (EKVX NSCLC): 8.1 µM
- GI50 (SN12C renal): 2.73 µM
- TGI (SN12C renal): 9.64 µM
- GI50 (HCC-2998 colon): 3.21 µM
- TGI (HCC-2998 colon): 11.8 µM
- GI50 (SW-620 colon): 3.12 µM
- TGI (SW-620 colon): 11.1 µM
- GI50 (UACC-257 melanoma): 1.97 µM
- TGI (UACC-257 melanoma): 5.3 µM
- GI50 (HCT-116 colon): 2.8 µM
- TGI (HCT-116 colon): 10.3 µM
- GI50 (HS 578T breast): 2.61 µM
- GI50 (NCI-H522 lung): 1.86 µM
- TGI (NCI-H522 lung): 7 µM
- GI50 (RPMI-8226 leukemia): 1.45 µM
- TGI (RPMI-8226 leukemia): 4.66 µM
- GI50 (SK-MEL-2 melanoma): 2.03 µM
- TGI (SK-MEL-2 melanoma): 5.51 µM
- GI50 (SK-OV-3 ovarian): 1.75 µM
- TGI (SK-OV-3 ovarian): 6.08 µM
- GI50 (SNB-75 CNS): 2.12 µM
- TGI (SNB-75 CNS): 8.89 µM
- GI50 (OVCAR-8 ovarian): 3 µM
- TGI (OVCAR-8 ovarian): 14.7 µM
- GI50 (HL-60(TB) leukemia): 2.14 µM
- TGI (HL-60(TB) leukemia): > 22.1 µM
- GI50 (HOP-62 NSCLC): 2.38 µM
- TGI (HOP-62 NSCLC): 6.86 µM
- GI50 (CAKI-1 renal): 1.42 µM
- TGI (CAKI-1 renal): 4.69 µM
- GI50 (MOLT-4 leukemia): 2.7 µM
- TGI (MOLT-4 leukemia): 17.3 µM
- GI50 (SK-MEL-5 melanoma): 1.46 µM
- TGI (SK-MEL-5 melanoma): 3.11 µM
- GI50 (NCI-H23 lung): 2.19 µM
- TGI (NCI-H23 lung): 8.71 µM
- GI50 (SF-539 CNS): 2.34 µM
- TGI (SF-539 CNS): 7.34 µM
- GI50 (NCI-H460 lung): 2.15 µM
- TGI (NCI-H460 lung): 6.77 µM
- GI50 (RXF 393 renal): 2.36 µM
- TGI (RXF 393 renal): 7.11 µM
- GI50 (MALME-3M melanoma): 1.39 µM
- TGI (MALME-3M melanoma): 4.87 µM
- GI50 (COLO 205 colon): 4 µM
- TGI (COLO 205 colon): 15.8 µM
- GI50 (BT-549 breast): 2.15 µM
- TGI (BT-549 breast): 6.12 µM
- GI50 (A498 renal): 2.96 µM
- TGI (A498 renal): 11 µM
- GI50 (HOP-92 NSCLC): 1.34 µM
- TGI (HOP-92 NSCLC): 4.78 µM
- GI50 (OVCAR-4 ovarian): 3.11 µM
- TGI (OVCAR-4 ovarian): 21.4 µM
- GI50 (NCI-H226 lung): 1.65 µM
- TGI (NCI-H226 lung): 6.06 µM
- GI50 (MDA-MB-435): 2.35 µM
- TGI (MDA-MB-435): 8.58 µM
- GI50 (NCI/ADR-RES ovarian): 2.75 µM
- TGI (NCI/ADR-RES ovarian): 12.1 µM
- GI50 (SNB-19 CNS): 3.46 µM
- TGI (SNB-19 CNS): 16.1 µM
- GI50 (OVCAR-5 ovarian): 3.48 µM
- TGI (OVCAR-5 ovarian): 12.9 µM
- GI50 (M14 melanoma): 3.01 µM
- TGI (M14 melanoma): 11.9 µM
- GI50 (SF-295 CNS): 2.31 µM
- TGI (SF-295 CNS): 7.59 µM
- GI50 (ACHN renal): 2.52 µM
- TGI (ACHN renal): 7.21 µM
- GI50 (CCRF-CEM leukemia): 2.62 µM
- TGI (CCRF-CEM leukemia): 9.5 µM
- GI50 (MDA-MB-231 breast): 2.05 µM
- TGI (MDA-MB-231 breast): 5.69 µM
- GI50 (OVCAR-3 ovarian): 2.48 µM
- TGI (OVCAR-3 ovarian): 9.06 µM
- GI50 (HT29 colon): 7.73 µM
- TGI (HT29 colon): 21.5 µM
- GI50 (LOX IMVI melanoma): 2.69 µM
- TGI (LOX IMVI melanoma): 8.8 µM
- GI50 (K-562 leukemia): 2.37 µM
- TGI (K-562 leukemia): > 100 µM
- GI50 (HCT-15 colon): 2.37 µM
- TGI (HCT-15 colon): 8.54 µM
- GI50 (SK-MEL-28 melanoma): 4.46 µM
- TGI (SK-MEL-28 melanoma): 14.4 µM
- GI50 (KM12 colon): 3.17 µM
- TGI (KM12 colon): 10.8 µM
- GI50 (A549 NSCLC): 2.65 µM
- TGI (A549 NSCLC): 7.71 µM
